From US20190046478A1, “BIOLOGICAL MARKER FOR IDENTIFYING CANCER PATIENTS FOR TREATMENT WITH A BIGUANIDE” (THE ROYAL INSTITUTION FOR THE ADVANCEMENT OF …, priority 2017, published 2019)
Like-named read-outs stand apart in the source and are kept apart here. Values belong to the compound of their own block, whether it stands above or below them.

Columns and labels:
Eμ-Myc lymphoma cells = conditions: for Protection of viability of +17˜92 cells by pyruvate supplementation, lower doses / Protection of viability of +17˜92 cells by pyruvate supplementation, higher concentrations: 1 mM pyruvate, FIG. 5D, 10C; for Protection of viability of +17˜92 cells by pyruvate supplementation, lower doses: 10 μM Compound 1 or 30 μM phenformin; for Protection of viability of +17˜92 cells by pyruvate supplementation, higher concentrations: 100 μM Compound 1 or 300 μM phenformin
Procedure: (§1) Eμ-Myc cells were cultured on a layer of irradiated Ink4a-null MEF feeder cells in DMEM and IMDM medium (50:50 mix) supplemented with 10% fetal bovine serum (FBS), 20000 U/mL penicillin, 7 mM streptomycin, 2 mM glutamine, and β-mercaptoethanol. Raji cells were cultured in RPMI medium supplemented with 10% FBS, 20000 U/mL penicillin, 7 mM streptomycin, and 2 mM glutamine. Cells were grown at 37° C. in a humidified atmosphere supplemented with 5% (v/v) CO2.
(§2) Cells were seeded at a density of 1×10^5 cells/mL in 3.5 cm dishes, and cell counts determined via trypan blue exclusion using a TC20 Automated Cell Counter (Biorad). For viability measurements, cells were stained with Fixable Viability Dye eFluor 780 (eBioscience), and analyzed using a Gallios flow cytometer (Beckman Coulter, Fullerton, Calif.) and FlowJo software (Tree Star, Ashland, Oreg.).

Raji cells = experiment: Cell viability assay in Raji lymphoma cells; format: cell-based, human; conditions: 48 hours, FIG. 3B
Procedure: as §1, §2

Eμ-Myc cells [1] = experiment: Seahorse XF96 respirometry (OCR and ECAR); format: cell-based, mouse; conditions: for Oxygen consumption of +17˜92 cells / Oxygen consumption of control cells: 100 μM phenformin or 10 μM Compound 1, after roughly four hours; for Oxygen consumption rate (OCR) / Extracellular acidification rate (ECAR): acute treatment, across a range of doses; for Oxygen consumption rate (OCR): FIG. 2A, 8A; for Extracellular acidification rate (ECAR): FIG. 2B, 8B; for IC50: after two hours treatment, read-out: Dose that produced a roughly 50% decrease in OCR from baseline
Procedure: 7.5×10^4 lymphoma cells were plated per well of an XF96 Seahorse plate in 140 μL of unbuffered DMEM containing 25 mM glucose and 2 mM glutamine, followed by centrifugation at 500×g for five minutes. Seahorse plates were pre-coated with poly-D-lysine (Sigma-Aldrich) to enhance cell adherence. XF assays consisted of sequential mix (3 min), pause (3 min), and measurement (5 min) cycles, allowing for determination of OCR and ECAR every […]. […] For media metabolite determination, cells were seeded at 1×10^5 cells/mL in 3.5 cm plates, and cultured for two days prior to harvesting medium. Culture medium was analyzed for extracellular metabolites (glucose and lactate) using a BioProfile Analyzer (NOVA Biomedical) and normalized to cell number.

AMPK = experiment: Immunoblot for pAMPK (T172) and total AMPK; format: cell-based, mouse; conditions: two hours, 100 μM phenformin or 10 μM Compound 1, FIG. 3C
Excerpt: Lymphoma cell lines were subjected to SDS-PAGE and immunoblotting using CHAPS and AMPK lysis buffers. Primary antibodies against β-actin, 4EBP (total, phospho-T36/47, and phospho-S65), rS6 (total and p S235/236), Raptor (total and pS792), and AMPKα (total and phospho-T172) were obtained from Cell Signaling Technology (Danvers, Mass.). Primary antibody against LKB1 (Ley 37D/G6) was obtained from Santa Cruz Biotechnology (Dallas, Tex., USA). For qPCR quantification of mature miRNAs, Qiazol was used isolate RNA, miRNEasy Mini kit was used to purify miRNAs and total mRNA, and cDNA synthesized using the miScript II RT kit (Qiagen). Quantitative PCR was performed using the SensiFAST SYBR Hi-ROX kit (Bioline) and an AriaMX Real-Time PCR system (Agilent Technologies). miScript primer assays (Qiagen) were used to detect mature miRNAs of the miR-17˜92 cluster, with miRNA expression normalized relative to U6 RNA levels.

Eμ-Myc cells [2] = experiment: GC-MS analysis of metabolite abundance and 13C-glutamine labelling; format: cell-based, mouse; conditions: for 13C-glutamine incorporation into glutamate and α-ketoglutarate, +17˜92 versus treated control cells: 100 μM phenformin or 10 μM Compound 1, FIG. 4B; for Aspartate abundance: +17˜92 and control cells, 2 hours, 100 μM phenformin or 10 μM Compound 1, FIG. 4A
Procedure: Cellular metabolites were extracted and analyzed by GC-MS. […] Cells were washed twice with saline, then lysed in ice-cold 80% methanol and sonicated. For GC-MS analysis, D-myristic acid (750 ng/sample) was added to metabolite extracts as an internal standard prior to drying samples under a N2 stream. […] The oven program for all metabolite analyses started at 60° C. held for 1 min, then increasing at a rate of 10° C./min until 320° C. Bake-out was at 320° C. for 10 min. […] Mass isotopomer distribution for TCA cycle intermediates was determined using a custom algorithm developed at McGill University. After correction for natural ^13C abundances, a comparison was made between non-labeled (^12C) and ^13C-labeled abundances for each metabolite. Metabolite abundance was expressed relative to the internal standard (D-myristic acid) and normalized to cell number.

Eμ-Myc cells [3] = experiment: Mitochondrial ROS by MitoSox staining and flow cytometry; format: cell-based, mouse; conditions: 2 hours, 100 μM phenformin or 10 μM Compound 1, FIG. 5A
Excerpt: Statistics for all figures are as follows: *, p<0.05; **, p<0.01; ***, p<0.001.

Eμ-Myc cells [4] = experiment: LC-MS analysis of GSH/GSSG, NADP+/NADPH and NAD+/NADH ratios; format: cell-based, mouse; conditions: 2 hours
Procedure: Aqueous supernatants were dried by vacuum centrifugation with sample temperature maintained at −4° C. (Labconco, Kansas City Mo., USA). Pellets were subsequently resuspended in 25 μL of H2O as the injection buffer. Chromatographic separation was performed on a Scherzo SM-C18 column 3 μm, 3.0×150 mm (Imtakt Corp, JAPAN). The chromatographic gradient started at 100% mobile phase A (0.2% formic acid in water) with a 2 min hold followed with a 6 min gradient to 80% B (0.2% formic acid in MeOH) at a flow rate of 0.4 mL/min. This was followed by a 5 min hold time at 100% mobile phase B and a subsequent re-equilibration time (6 min) before next injection. […] Analyte ionization was accomplished using ESI in positive ionization mode. […] MS data were acquired in full scan mode mass range: m/z 100-1000; scan time: 1.4 s; data collection: centroid and profile modes. […] For all LC/MS analyses, 1 μL of sample was injected. The column temperature was maintained at 10° C. Data were quantified by integrating the area under the curve of each compound using MassHunter Quant (Agilent Technologies, Santa Clara, Calif., USA). Each metabolite's accurate mass ion was extracted (EIC) using a 10 ppm window. Relative concentrations were determined from external calibration curves.

[5] = tested on: Eμ-Myc lymphoma cells (control or +17˜92); experiment: Tumor xenograft assay, survival of nude mice injected with lymphoma cells; format: in vivo, CD-1 nude mice; conditions: drinking water ad lib, 0.9 mg/mL phenformin or 0.8 mg/mL Compound 1, FIG. 6B
Procedure: Lymphoma cells were resuspended in HBSS at a concentration of 5×10^6 cells/mL, and 10^6 cells/200 μL were injected intravenously into CD-1 nude mice (Charles River).

[6] = 100 μM phenformin or 10 μM Compound 1, FIG. 5C

IC50 (Eμ-Myc cells [1]): 10 µM
SMILES: N=C(NC(=N)N1CCCC1)Nc1cccc(OC(F)(F)F)c1 [Compound 1, N1-pyrrolidine-N5-(3-trifluoromethoxy)phenyl biguanide]
Protection of viability of +17˜92 cells by pyruvate supplementation, lower doses (Eμ-Myc lymphoma cells; 48 hours): some protective benefit
Protection of viability of +17˜92 cells by pyruvate supplementation, higher concentrations (Eμ-Myc lymphoma cells; 48 hours): not apparent
Viability of +17˜92 cells at doses not toxic in control cells (Eμ-Myc lymphoma cells; 48 hours, FIG. 3A): viability of +17˜92 cells was affected
Viability of Raji cells with or without miR-17˜92 overexpression over a range of doses (Raji cells): followed a similar trend, albeit at higher doses
Oxygen consumption of +17˜92 cells (Eμ-Myc cells [1]): never eliminated
Oxygen consumption of control cells (Eμ-Myc cells [1]): effectively non-respiring
Oxygen consumption rate (OCR) (Eμ-Myc cells [1]): decreased
Extracellular acidification rate (ECAR) (Eμ-Myc cells [1]): commensurate increases
Speed of OCR reduction versus equivalent doses of phenformin (Eμ-Myc cells [1]; higher doses, 5 min post-injection, FIG. 2C): more rapid reductions in OCR
Extent of OCR reduction versus equivalent doses of phenformin (Eμ-Myc cells [1]; lower doses, longer time periods (260 min), FIG. 2D): more profound reductions in OCR
AMPK phosphorylation in +17˜92 cells (AMPK): largely unaffected
13C-glutamine incorporation into glutamate and α-ketoglutarate, +17˜92 versus treated control cells (Eμ-Myc cells [2]): more significant reduction
Aspartate abundance (Eμ-Myc cells [2]): reduced aspartate abundance
Mitochondrial ROS in +17˜92 cells (Eμ-Myc cells [3]): significantly increased mitochondrial ROS
Mitochondrial ROS levels in control cells (Eμ-Myc cells [3]): neither phenformin nor Compound 1 treatment were sufficient to increase
GSH/GSSG ratio (Eμ-Myc cells [4]; 100 μM phenformin or 10 μM Compound 1, FIG. 5B): no significant changes
NADP+/NADPH ratio in +17˜92 cells (Eμ-Myc cells [4]; [6]): increase their NADP+/NADPH ratio
NADP+/NADPH ratio in control cells (Eμ-Myc cells [4]; [6]): not control cells
Lifespan of mice bearing +17˜92 cells [5]: significantly prolonged the lifespan

IC50 (Eμ-Myc cells [1]; Mus musculus, 2 h): 100 µM
SMILES: [H]/N=C(/N)N/C(=N/[H])NCCc1ccccc1 [phenformin, reference compound]
Viability of Δ/Δ (miR-17˜92 deleted) versus fl/fl cells (Eμ-Myc lymphoma cells; 48 hour treatment, FIG. 1A): more resistant
Protection of viability of +17˜92 cells by pyruvate supplementation, lower doses (Eμ-Myc lymphoma cells; 48 hours): some protective benefit
Protection of viability of +17˜92 cells by pyruvate supplementation, higher concentrations (Eμ-Myc lymphoma cells; 48 hours): not apparent
Sensitivity (viability) of +17˜92 versus control Eμ-Myc lymphoma cells (Eμ-Myc lymphoma cells; 48 hours, FIG. 1C): significantly more sensitive than controls
Viability of Raji cells with or without miR-17˜92 overexpression over a range of doses (Raji cells): followed a similar trend, albeit at higher doses
Oxygen consumption of +17˜92 cells (Eμ-Myc cells [1]): never eliminated
Oxygen consumption of control cells (Eμ-Myc cells [1]): effectively non-respiring
Oxygen consumption rate (OCR) (Eμ-Myc cells [1]): decreased
Extracellular acidification rate (ECAR) (Eμ-Myc cells [1]): commensurate increases
AMPK phosphorylation in +17˜92 cells (AMPK): reduced AMPK phosphorylation than control cells
13C-glutamine incorporation into glutamate and α-ketoglutarate, +17˜92 versus treated control cells (Eμ-Myc cells [2]): not
Aspartate abundance (Eμ-Myc cells [2]): reduced aspartate abundance
Mitochondrial ROS in +17˜92 cells (Eμ-Myc cells [3]): approached significance
Mitochondrial ROS levels in control cells (Eμ-Myc cells [3]): neither phenformin nor Compound 1 treatment were sufficient to increase
Lifespan of mice bearing +17˜92 cells [5]: significantly prolonged the lifespan
